Earlier results in patent publication US20140235496A1, “STIMULUS-ELICITED GENOMIC PROFILE MARKERS OF A NEURODEGENERATIVE CONDITION” (Blanchette Rockefeller Neurosciences Institute, priority 2011, published 2014).

System: PKC
Details: shown to be effective; see US 2010/0022645

CCC1CC1CC1CC1CC1CC1CC1CC1CC1CC1CC1CC1CCC(=O)O (stereo not shown) [DHA-CP6]
effective concentration: 10 nM
